The text below walks through data of article PMC5042873 (Journal of the American Chemical Society, 2016).

For one series, the system named is GLUT1 transporters. The conditions noted are these: cited from earlier work.
A short description of series [1]: In vivo toxicity by body weight and general behavior. Also noted: species or system Balb/c mice. Particulars: 5 mg/kg, 4X in 8 days.
Series [2] concerns GLUT1 expressing breast cancer (G1fpt). Put plainly: In vivo antitumor efficacy, GLUT1 expressing breast cancer syngeneic model. The arrangement: species or system Balb/c mice. The conditions noted are these: 5 mg/kg i.v. bolus, four treatments once every other day, 30 days.

For `O=[N+]([O-])c1ccc(NCC2OC(O)C(O)C(O)[C@@H]2O)c2nonc12` (stereo partly shown) [6-NBDG], in the series with GLUT1 transporters, the “affinity for GLUT1 transporters relative to D-glucose” value is reported as 300 fold.

For `O=C1[O][Pt]2([NH][C@@H]3CCCC[C@H]3[NH]2)[O]C1=O` [oxaliplatin], in series [1], the body weight entry is “reduced after the second dose but recovered to normal values”. In series [2], the “antitumor efficacy (tumor volume)” value is given as “no statistically significant difference compared to the Glc-Pt 2 treated group” and the “tumors smaller compared to tumors in the PBS treated control group” value stood at 10 times.
